Where two headings read alike, the source gives them in different places.
Assays:
[1] = molecular target: panel of more than 300 wild-type and mutant kinases (313 kinase panel) (Homo sapiens, UniProt P15056); test: Kinase profiling in a biochemical assay panel (mobility shift assays and ELISA), %-inhibition at 1 μM; selectivity entropy; settings: kinase BRAF; 1 μM compound
[2] = molecular target: panel of more than 300 wild-type and mutant kinases (313 kinase panel) (Homo sapiens, UniProt P07947, T348I); test: as above; settings: kinase YES(T348I); compound at 1 μM
[3] = molecular target: panel of more than 300 wild-type and mutant kinases (313 kinase panel) (Homo sapiens, UniProt P22612); test: as above; settings: kinase PKACγ; 1 μM
[4] = molecular target: panel of more than 300 wild-type and mutant kinases (313 kinase panel) (Homo sapiens, UniProt P15056, V600E); test: as above; settings: kinase BRAF(V600E); 1 μM compound
[5] = molecular target: panel of more than 300 wild-type and mutant kinases (313 kinase panel) (Homo sapiens, UniProt P11362, V561M); test: as above; settings: kinase FGFR1(V561M); compound at 1 μM
[6] = molecular target: panel of more than 300 wild-type and mutant kinases (313 kinase panel) (Homo sapiens, UniProt P09619); test: as above; settings: kinase PDGFRβ; 1 μM
[7] = test system: forty-four human cancer cell lines; test: Cell proliferation assay (ATPlite, 72 hours) in the 44 cell line Oncolines panel; type: cell-based; settings: Homo sapiens

Compound: C[C@@H](Oc1cc(-c2cnn(C3CCNCC3)c2)cnc1N)c1c(Cl)ccc(F)c1Cl [crizotinib]
- %-inhibition, BRAF [1]: 12%
- %-inhibition of YES(T348I) [2]: 93%
- %-inhibition of PKACγ [3]: -6.52%
- %-inhibition, BRAF(V600E) [4]: 10%
- %-inhibition of FGFR1(V561M) [5]: 26%
- %-inhibition of PDGFRβ [6]: 18%
- IC50 ([7]; 4-4 cell, read-out: cell panel IC50, J82): 5.23 µM
- IC50 ([7]; 4-4 cell, read-out: cell panel IC50, PA-1): 0.888 µM
- IC50 ([7]; 4-4 cell, read-out: cell panel IC50, SJCRH30): 1.09 µM
- IC50 ([7]; 4-4 cell, read-out: cell panel IC50, SR): 0.044 µM
- IC50 ([7]; 769-P, read-out: cell panel IC50, 769-P): 2.96 µM
- IC50 ([7]; 786-0, read-out: cell panel IC50, 786-0): 3.88 µM
- IC50 ([7]; A 172, read-out: cell panel IC50, A-172): 1.7 µM
- IC50 ([7]; A204, read-out: cell panel IC50, A-204): 2.46 µM
- IC50 ([7]; A498, read-out: cell panel IC50, A-498): 2.24 µM
- IC50 ([7]; A549, read-out: cell panel IC50, A-549): 1.18 µM
- IC50 ([7]; A-375, read-out: cell panel IC50, A375): 1.07 µM
- IC50 ([7]; A-427, read-out: cell panel IC50, A-427): 0.672 µM
- IC50 ([7]; ACHN, read-out: cell panel IC50, ACHN): 2.24 µM
- IC50 ([7]; AN3-CA, read-out: cell panel IC50, AN3 CA): 1.72 µM
- IC50 ([7]; AU565, read-out: cell panel IC50, AU-565): 7.79 µM
- IC50 ([7]; BT-20, read-out: cell panel IC50, BT-20): 12.7 µM
- IC50 ([7]; BT-549, read-out: cell panel IC50, BT-549): 4.89 µM
- IC50 ([7]; BXPC-3, read-out: cell panel IC50, BxPC-3): 1.39 µM
- IC50 ([7]; C-33-A, read-out: cell panel IC50, C-33 A): 3.04 µM
- IC50 ([7]; CAL-27, read-out: cell panel IC50, CAL 27): 1.82 µM
- IC50 ([7]; CCRF-CEM, read-out: cell panel IC50, CCRF-CEM): 0.567 µM
- IC50 ([7]; DLD-1, read-out: cell panel IC50, DLD-1): 3 µM
- IC50 ([7]; FaDu, read-out: cell panel IC50, FaDu): 5.34 µM
- IC50 ([7]; HCT-15, read-out: cell panel IC50, HCT-15): 4.84 µM
- IC50 ([7]; HCT-116, read-out: cell panel IC50, HCT-116): 1.69 µM
- IC50 ([7]; Hs-578T, read-out: cell panel IC50, Hs 578T): 2.75 µM
- IC50 ([7]; Jurkat E6.1, read-out: cell panel IC50, Jurkat E6.1): 1.11 µM
- IC50 ([7]; K562, read-out: cell panel IC50, K-562): 0.252 µM
- IC50 ([7]; LS174T, read-out: cell panel IC50, LS 174T): 0.842 µM
- IC50 ([7]; LoVo, read-out: cell panel IC50, LoVo): 0.658 µM
- IC50 ([7]; MG-63, read-out: cell panel IC50, MG-63): 1.73 µM
- IC50 ([7]; MOLT-4, read-out: cell panel IC50, MOLT-4): 0.347 µM
- IC50 ([7]; NCI-H82, read-out: cell panel IC50, NCI-H82): 0.854 µM
- IC50 ([7]; NCI-H460, read-out: cell panel IC50, NCI-H460): 1.15 µM
- IC50 ([7]; OVCAR-3, read-out: cell panel IC50, OVCAR-3): 4.56 µM
- IC50 ([7]; RPMI-7951, read-out: cell panel IC50, RPMI-7951): 1.53 µM
- IC50 ([7]; SHP77, read-out: cell panel IC50, SHP-77): 3.12 µM
- IC50 ([7]; SK-N-AS, read-out: cell panel IC50, SK-N-AS): 1.31 µM
- IC50 ([7]; SW48, read-out: cell panel IC50, SW48): 1.96 µM
- IC50 ([7]; SW480, read-out: cell panel IC50, SW480): 3.61 µM
- IC50 ([7]; SW-620, read-out: cell panel IC50, SW620): 1.33 µM
- IC50 ([7]; U2OS, read-out: cell panel IC50, U-2 OS): 1.98 µM
- IC50 ([7]; U-87 MG, 72 h, read-out: IC50 in cell proliferation assay (table S5 cellpanel data)): 3.91 µM
